From US10894784B2, “Heteroarylbenzimidazole compounds” (BAYER PHARMA AKTIENGESELLSCHAFT, priority 2015, dated 2021)

Each compound was assayed against TBK1 (Homo sapiens (Human), UniProt Q9UHD2) (assay: TBK1 low ATP kinase assay (in vitro assay 1)). Settings: in vitro assay 1, read-out: TBK1 low ATP kinase assay IC50.
Sequence of TBK1 (Q9UHD2 whole entry): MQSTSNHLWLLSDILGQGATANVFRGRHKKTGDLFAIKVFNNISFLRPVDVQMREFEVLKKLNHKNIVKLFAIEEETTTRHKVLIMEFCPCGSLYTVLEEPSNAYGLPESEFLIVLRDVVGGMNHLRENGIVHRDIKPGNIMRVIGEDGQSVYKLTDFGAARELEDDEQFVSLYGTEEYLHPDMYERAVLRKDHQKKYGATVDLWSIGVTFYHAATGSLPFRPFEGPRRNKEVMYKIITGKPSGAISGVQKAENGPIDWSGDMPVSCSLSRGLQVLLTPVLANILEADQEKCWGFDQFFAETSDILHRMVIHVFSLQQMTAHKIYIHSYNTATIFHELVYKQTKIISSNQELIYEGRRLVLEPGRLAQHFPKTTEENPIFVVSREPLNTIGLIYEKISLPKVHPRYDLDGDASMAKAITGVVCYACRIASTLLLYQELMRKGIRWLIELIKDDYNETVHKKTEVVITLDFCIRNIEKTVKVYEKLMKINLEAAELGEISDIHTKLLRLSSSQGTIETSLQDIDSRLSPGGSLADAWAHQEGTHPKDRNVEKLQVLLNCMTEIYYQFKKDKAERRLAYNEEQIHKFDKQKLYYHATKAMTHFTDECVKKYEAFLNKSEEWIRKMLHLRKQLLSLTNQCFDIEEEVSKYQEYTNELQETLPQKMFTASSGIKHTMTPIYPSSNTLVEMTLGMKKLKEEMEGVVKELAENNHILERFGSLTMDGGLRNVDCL
Assay type: biochemical
An IC50 of 0.49 nM was found for `CC(c1ccnc(Nc2nc3ccc(-c4cc(N5CCCC5)ncn4)cc3[nH]2)c1)N1CCN(C(=O)CC(F)(F)F)CC1` (single isomer, unassigned) [Example 117.03, 3,3,3-trifluoro-1-(4-{(1R or 1S)-1-[2-({6-[6-(pyrrolidin-1-yl)pyrimidin-4-yl]-1H-benzimidazol-2-yl}amino)pyridin-4-yl]ethyl}piperazin-1-yl)propan-1-one] in this work.
An IC50 of 3.3 nM was found for `CC(C)Nc1cc(-c2ccc3nc(Nc4cc(CN5CCN(C(=O)CC(F)(F)F)CC5)ccn4)[nH]c3c2)ncn1` [Example 154.02, 3,3,3-trifluoro-1-(4-{[2-({6-[6-(propan-2-ylamino)pyrimidin-4-yl]-1H-benzimidazol-2-yl}amino)pyridin-4-yl]methyl}piperazin-1-yl)propan-1-one] in this work.
An IC50 of 19.5 nM was found for `CCOc1nccc(-c2ccc3nc(Nc4cc(C(C)N5CCN(C(=O)CC(F)(F)F)CC5)ccn4)[nH]c3c2)n1` (single isomer, unassigned) [Example 26.03.01.B, 1-{4-[(1S or 1R)-1-(2-{[6-(2-ethoxypyrimidin-4-yl)-1H-benzimidazol-2-yl]amino}pyridin-4-yl)ethyl]piperazin-1-yl}-3,3,3-trifluoropropan-1-one] in this work.
An IC50 of 9.2 nM was found for `N#Cc1cc(-c2ccc3nc(Nc4cc(CN5CCN(C(=O)CC(F)(F)F)CC5)ccn4)[nH]c3c2)ncn1` [Example 77.01, 6-{2-[(4-{[4-(3,3,3-trifluoropropanoyl)piperazin-1-yl]methyl}pyridin-2-yl)amino]-1H-benzimidazol-6-yl}pyrimidine-4-carbonitrile] in this work.
An IC50 of 3.85 nM was found for `COc1cncnc1-c1ccc2nc(Nc3cc(C(C)N4CCN(C(=O)CC(F)(F)F)CC4)ccn3)[nH]c2c1` (single isomer, unassigned) [Example 35.03.01.A, 3,3,3-trifluoro-1-{4-[(1R or 1S)-1-(2-{[6-(5-methoxypyrimidin-4-yl)-1H-benzimidazol-2-yl]amino}pyridin-4-yl)ethyl]piperazin-1-yl}propan-1-one] in this work.
An IC50 of 14.1 nM was found for `CCOc1nccc(-c2ccc3nc(Nc4cc(CN5CCN(C(=O)CC6CC6)CC5)ccn4)[nH]c3c2)n1` [Example 26.01.05, 2-cyclopropyl-1-{4-[(2-{[6-(2-ethoxypyrimidin-4-yl)-1H-benzimidazol-2-yl]amino}pyridin-4-yl)methyl]piperazin-1-yl}ethanone] in this work.
An IC50 of 32.4 nM was found for `COc1cncnc1-c1ccc2nc(Nc3cc(CN4CCN(S(=O)(=O)C5CC5)CC4)ccn3)[nH]c2c1` [Example 35.01.12, N-(4-{[4-(cyclopropylsulfonyl)piperazin-1-yl]methyl}pyridin-2-yl)-6-(5-methoxypyrimidin-4-yl)-1H-benzimidazol-2-amine] in this work.
An IC50 of 26 nM was found for `CC(c1ccnc(Nc2nc3ccc(-c4ccnn4C)cc3[nH]2)c1)N1CCN(C(=O)C2CC2)CC1` (single isomer, unassigned) [Example 123.03, cyclopropyl{4-[(1R or 1S)-1-(2-{[6-(1-methyl-1H-pyrazol-5-yl)-1H-benzimidazol-2-yl]amino}pyridin-4-yl)ethyl]piperazin-1-yl}methanone] in this work.
An IC50 of 2.6 nM was found for `CC(c1ccnc(Nc2nc3ccc(-c4cc(N5CCOCC5)ncn4)cc3[nH]2)c1)N1CCN(C(=O)C2(C(F)(F)F)CC2)CC1` (single isomer, unassigned) [Example 118.04, (4-{(1R or 1S)-1-[2-({6-[6-(morpholin-4-yl)pyrimidin-4-yl]-1H-benzimidazol-2-yl}amino)pyridin-4-yl]ethyl}piperazin-1-yl)[1-(trifluoromethyl)cyclopropyl]methanone] in this work.
An IC50 of 2600 nM was found for `Cc1nc(-c2ccc3nc(Nc4cc(CN5CCN(C(=O)CC(F)(F)F)CC5)ccn4)[nH]c3c2)c2ccsc2n1` [Example 104.01, 3,3,3-trifluoro-1-{4-[(2-{[6-(2-methylthieno[2,3-d]pyrimidin-4-yl)-1H-benzimidazol-2-yl]amino}pyridin-4-yl)methyl]piperazin-1-yl}propan-1-one] in this work.
An IC50 of 21 nM was found for `O=C(CC(F)(F)F)N1CCN(Cc2ccnc(Nc3nc4ccc(-c5cc(OCC6(C(F)(F)F)CC6)ncn5)cc4[nH]3)c2)CC1` [Example 158.02, 3,3,3-trifluoro-1-{4-[(2-{[6-(6-{[1-(trifluoromethyl)cyclopropyl]methoxy}pyrimidin-4-yl)-1H-benzimidazol-2-yl]amino}pyridin-4-yl)methyl]piperazin-1-yl}propan-1-one] in this work.
An IC50 of 1.4 nM was found for `COc1c(-c2ccc3nc(Nc4cc(C(C)N5CCN(C(=O)CC(F)(F)F)CC5)ccn4)[nH]c3c2)ncnc1N1CCCC1` (single isomer, unassigned) [Example 112.03, 3,3,3-trifluoro-1-(4-{(1R or 1S)-1-[2-({6-[5-methoxy-6-(pyrrolidin-1-yl)pyrimidin-4-yl]-1H-benzimidazol-2-yl}amino)pyridin-4-yl]ethyl}piperazin-1-yl)propan-1-one] in this work.
An IC50 of 0.66 nM was found for `CC(c1ccnc(Nc2nc3ccc(-c4cnn(CC5CC5(F)F)c4)cc3[nH]2)c1)N1CCN(C(=O)C2CC2)CC1` (single isomer, unassigned) [Example 55.03.02, cyclopropyl{4-[(1R or 1S)-1-(2-{[6-(1-{[(1R or 1S)-2,2-difluorocyclopropyl]methyl}-1H-pyrazol-4-yl)-1H-benzimidazol-2-yl]amino}pyridin-4-yl)ethyl]piperazin-1-yl}methanone] in this work.
An IC50 of 8.61 nM was found for `CC(c1ccnc(Nc2nc3ccc(-c4cnn(CC5CC5)c4)cc3[nH]2)c1)N1CCN(C(=O)OC(C)(C)C)CC1` (single isomer, unassigned) [Example 39.02.01, tert-butyl 4-{(1R or 1S)-1-[2-({6-[1-(cyclopropylmethyl)-1H-pyrazol-4-yl]-1H-benzimidazol-2-yl}amino)pyridin-4-yl]ethyl}piperazine-1-carboxylate] in this work.
An IC50 of 55.5 nM was found for `Cc1cc(-c2ccc3nc(Nc4cc(CN5CCN(C(=O)CC6CC6)CC5)ccn4)[nH]c3c2)ccn1` [Example 01.04, 2-cyclopropyl-1-{4-[(2-{[6-(2-methylpyridin-4-yl)-1H-benzimidazol-2-yl]amino}pyridin-4-yl)methyl]piperazin-1-yl}ethanone] in this work.
An IC50 of 339 nM was found for `COc1ncccc1-c1ccc2nc(Nc3cc(CN4CCN(C(=O)CC(F)(F)F)CC4)ccn3)[nH]c2c1` [Example 15.01, 3,3,3-trifluoro-1-{4-[(2-{[6-(2-methoxypyridin-3-yl)-1H-benzimidazol-2-yl]amino}pyridin-4-yl)methyl]piperazin-1-yl}propan-1-one] in this work.
An IC50 of 12.4 nM was found for `COc1cc(-c2ccc3nc(Nc4cc(C(C)N5CCN(C(=O)CC(F)(F)F)CC5)ccn4)[nH]c3c2)ncn1` (racemic) [Example 34.02.01, (rac)-3,3,3-trifluoro-1-{4-[1-(2-{[6-(6-methoxypyrimidin-4-yl)-1H-benzimidazol-2-yl]amino}pyridin-4-yl)ethyl]piperazin-1-yl}propan-1-one] in this work.
An IC50 of 7.86 nM was found for `Cc1cc(-c2ccc3nc(Nc4cc(C(C)N5CCN(C(=O)C6CCC6)CC5)ccn4)[nH]c3c2)ncn1` (racemic) [Example 30.02.02, (rac)-cyclobutyl{4-[1-(2-{[6-(6-methylpyrimidin-4-yl)-1H-benzimidazol-2-yl]amino}pyridin-4-yl)ethyl]piperazin-1-yl}methanone] in this work.
An IC50 of 11 nM was found for `Cc1nccc(-c2ccc3nc(Nc4cc(C(C)N5CCN(C(=O)C6CCC6)CC5)ccn4)[nH]c3c2)n1` (single isomer, unassigned) [Example 24.05.02.A, cyclobutyl{4-[(1R or 1S)-1-(2-{[6-(2-methylpyrimidin-4-yl)-1H-benzimidazol-2-yl]amino}pyridin-4-yl)ethyl]piperazin-1-yl}methanone] in this work.
